Reference: PMC6440584 (Eurosurveillance, 2019)

Legend:
[1] = biological target: neuraminidase (NA) of influenza A(H3N2) virus A/YOKOHAMA/87/2019 (Influenza A virus, UniProt A0A193ACB1); type: biochemical
[2] = biological target: neuraminidase (NA) of influenza A(H3N2) virus A/YOKOHAMA/88/2019 (Influenza A virus, UniProt A0A193ACB1); type: biochemical

Question: Which “WHO criteria (fold change of IC50 compared with reference IC50)” value [1] does the source give for `CCC(CC)[C@H](NC(C)=O)[C@@H]1[C@H](O)[C@@H](C(=O)O)C[C@H]1N=C(N)N` [Peramivir, peramivir] here?
Answer: 0.16 (NI) (key: NI: normal inhibition)

Question: And the “WHO criteria (fold change of IC50 compared with reference IC50)” value [2]?
Answer: 0.13 (NI) (key: NI: normal inhibition)
